Source: patent publication US20060019241A1, “Na+ and CI-coupled transport system for endogenous opioid peptides” (priority 2004, published 2006)
Entries after “also recorded” stand apart in the source; their conditions may differ.

How the values were obtained:
Format in all cases: cell-based, human
[1] = test system: enkephalin/endorphin transport system in SK—N—SH cells; experiment: [^3H]deltorphin II uptake in SK—N—SH cells, effect of peptides and amino acids; conditions: for Deltorphin II uptake / effect on [^3H]deltorphin II uptake (in words): NaCl, 30 minutes; for Deltorphin II uptake: compound 1 mM; for effect on [^3H]deltorphin II uptake (in words): test substance 1 mM; for IC50: read-out: affinity for the transport system (concentration-dependent inhibition of [^3H]deltorphin II uptake), [^3H]deltorphin II 25 nM
Protocol: (§1) Uptake measurements in control ARPE-19 cells and Tat-ARPE-19 cells. Control ARPE-19 cells and Tat-ARPE-19 cells were maintained in 75-cm^2 culture flasks in Dulbecco's modified Eagle's medium/F12 medium (1:1, volume/volume (v/v)) in the presence of fetal bovine serum (10%) and G418 (100 μg/ml). For uptake measurements, cells were released by trypsin treatment and seeded in 24-well culture plates at an initial density of 0.1×10^6 cells/well. The culture medium was replaced with fresh medium on the second day following the initial seeding and uptake measurements were made on the third day. […] After incubation at 37° C. for a desired time, uptake was terminated by the removal of the medium and washing of the cells with ice-cold uptake buffer. The cells were then dissolved in 1% SDS in 0.2 M NaOH and used for measurement of radioactivity. The uptake buffer in most experiments was 25 mM Hepes/Tris (pH 7.5), containing 140 mM NaCl, 5.4 mM KCl, 1.8 mM CaCl2, 0.8 mM MgSO4 and 5 mM glucose.
Since enkephalins and endorphins are relevant to pain perception and to further provide evidence in support of a role for the transport system in opioidergic neurotransmission, the human neuronal cell line SK—N—SH was tested for expression of the transport system. […] Unless otherwise specified, procedures are as detailed in Example 1.
The concentration of enkephalins and dynorphins was 1 mM.
Finally, the relative affinity of various enkephalins and dynorphins for the transport system in SK—N—SH cells was determined.
To the further characterize the opioid transport of the present invention, various specific peptides that act as positive modulators of the enkephalin/endorphin transport system in the human neuronal cell line SK—N—SH were identified. Unless otherwise specified, procedures are as detailed in Example 1. […] Uptake was measured in the presence of NaCl for 30 minutes. The concentration of the dipeptides was 1 mM.
Uptake was measured in the presence of NaCl for 30 minutes. The concentration of the tripeptides was 1 mM.
Unless otherwise specified, procedures are as described in more detail in Example 1.
The dose-response relationship for the inhibition of the enkephalin/endorphin transport system by L-Lysine and its methyl and ethyl esters is shown in FIG. 15.

[2] = test system: deltorphin II transport system in Tat-ARPE-19 cells; experiment: Inhibition of [^3H]deltorphin II uptake in Tat-ARPE-19 cells; conditions: for [^3H] Deltorphin II uptake / [^3H] Deltorphin II uptake (%) of control: Tat-ARPE-19 cells, 30 minutes, NaCl, inhibitor 1 mM; for [^3H] Deltorphin II uptake / [^3H] Deltorphin II uptake (%) of control / competition with deltorphin for the uptake process (in words): [^3H]deltorphin II 50 nM; for [^3H] Deltorphin II uptake (%) of control: control = 100; for competition with deltorphin for the uptake process (in words): Tat-ARPE-19 / RPE cells, compound 1 mM
Source text: (§2) Stable transfection of ARPE-19 cells with pcDNA-Tat cDNA. The pGEM2-Tat cDNA construct contained as the insert a 295 basepair (bp) fragment encoding the first exon of HIV-1 Tat gene joined to a 145 bp pET3A transcription terminator. The entire insert (440 bp) was removed from the construct by digestion with PstI and EcoRI and ligated into the multiple cloning region of pcDNA3.1 (−) vector at PstI/EcoRI site so that the insert is downstream of the cytomegalovirus (CMV) promoter. The resultant construct was sequenced to confirm the orientation of the insert. This construct was electroporated into ARPE-19 cells and the stably transfected cell clones were isolated in the presence of Geneticin (G418). To serve as a control, empty pcDNA3.1 vector was electroporated into ARPE-19 cells in an identical manner and the clones harboring the vector were selected by G418 resistance.
as §1
When the influence of Na^+ on the uptake process was investigated, the concentration of NaCl in the uptake buffer was adjusted, as desired, by isoosmotically replacing NaCl with N-methyl-D-glucamine chloride. To assess the influence of Cl^− on the uptake process, the composition of the uptake medium was modified by replacing KCl and CaCl2 with equimolar concentrations of potassium gluconate and calcium gluconate and the concentration of NaCl was adjusted, as desired, by iso-osmotically replacing NaCl with sodium gluconate. Saturation kinetics were analysed by fitting the data to the Michaelis-Menten equation. The Michaelis-Menten constant, Kt, was calculated by non-linear regression analysis and then confirmed by linear regression. Na^+- and Cl^−-activation kinetics were analyzed by fitting the data to the Hill equation and the Hill coefficients for Na^+ and Cl^− (h; the number of Na^+ and Cl^− ions involved in the activation process) and the K0.5 values (the concentration of Na^+ and Cl^−-needed for half-maximal activation) were determined from the analysis. Again, these constants were first calculated by non-linear regression methods and subsequently confirmed by linear regression methods. Experiments were repeated three times in duplicate and the results are given as means±S.E.M.
(§3) Substrate specificity of the deltorphin transport system. […] These peptides consisted of 4-13 amino acids.
Relative affinities of endogenous opioid peptides for the transport system.

[3] = test system: deltorphin II transport system in control ARPE-19 cells; experiment: Inhibition of [^3H]deltorphin II uptake in control ARPE-19 cells; conditions: [^3H]deltorphin II 50 nM, 30 minutes, NaCl, peptide/antagonist 1 mM; for [^3H] Deltorphin II uptake: control ARPE-19 cells (pcDNA vector alone); for [^3H] Deltorphin II uptake (%) of control: control ARPE-19 cells, control = 100
Source text: as §2, §1, §3

Q: With `NC(=O)NCCC[C@H](N)C(=O)O` [L-Citrulline] as the molecule, how does the “Deltorphin II uptake” value ([1]; [^3H]deltorphin II 25 nM) read?
A: 2.18 ± 0.06 pmol/30 min/mg protein

Q: With `N[C@H](Cc1ccc(O)cc1)C(=O)O` [D-Tyrosine] as the molecule, how does the “effect on [^3H]deltorphin II uptake (in words)” value (“effect” below) ([1]; [^3H]deltorphin II 25 nM) read?
A: significant inhibition

Q: And the “[^3H] Deltorphin II uptake” value [2]?
A: 4.05 ± 0.09 pmol/mg protein/30 min

Q: What about the “[^3H] Deltorphin II uptake (%) of control” value [2] of the same molecule?
A: 52%

Q: Tyr-Gly-Gly-Phe-Met [Met-enkephalin] was tested. Which “[^3H] Deltorphin II uptake” value [3] did it give?
A: 0.06 ± 0.004 pmol/mg protein/30 min

Q: What about the “[^3H] Deltorphin II uptake (%) of control” value [3] of the same molecule?
A: 5%

Q: And the IC50 [1]?
A: 10.7 ± 3.1 µM

Q: And the “competition with deltorphin for the uptake process (in words)” value [2]?
A: marked inhibition

Q: What about the “[^3H] Deltorphin II uptake” value [2] of the same molecule?
A: 0.50 ± 0.01 pmol/mg protein/30 min

Q: And the “[^3H] Deltorphin II uptake (%) of control” value [2]?
A: 6%

Q: Which “influence on kinetic parameters of deltorphin II uptake” value ([1]; 1 mM Gly-Gly-Ile) does the source give for Gly-Gly-Ile here?
A: increasing the maximal velocity of the system without affecting the affinity for its substrate

Q: And the “effect” value ([1]; [^3H]deltorphin II 25 nM)?
A: ability to stimulate the uptake; also recorded: stimulated

Q: And the “stimulation of deltorphin II uptake” value ([1]; [^3H]deltorphin II 25 nM, peptide 1 mM)?
A: 6- to 8 fold

Q: `NCCCC[C@@H](N)C(=O)O` [D-Lys, D-lysine] was tested. Which “Deltorphin II uptake” value ([1]; [^3H]deltorphin II 25 nM) did it give?
A: 2.60 ± 0.31 pmol/30 min/mg protein

Q: What about the “effect” value ([1]; [^3H]deltorphin II 25 nM) of the same molecule?
A: no effect

Q: For Tyr-Gly-Gly-Phe-Leu [Leu-enkephalin], which IC50 [1] is on record?
A: 7.8 ± 1.2 µM

Q: What about the “competition with deltorphin for the uptake process (in words)” value [2] of the same molecule?
A: marked inhibition

Q: What about the “[^3H] Deltorphin II uptake” value [2] of the same molecule?
A: 0.15 ± 0.01 pmol/mg protein/30 min

Q: And the “[^3H] Deltorphin II uptake (%) of control” value [2]?
A: 2%

Q: “YGGFMRF [[Arg^6, Phe^7] Met-enkephalin, Tyr-Gly-Gly-Phe-Met-Arg-Phe]” was tested. Which “[^3H] Deltorphin II uptake” value [3] did it give?
A: 0.05 ± 0.001 pmol/mg protein/30 min

Q: What about the “[^3H] Deltorphin II uptake (%) of control” value [3] of the same molecule?
A: 4%

Q: And the “[^3H] Deltorphin II uptake” value [2]?
A: 0.11 ± 0.01 pmol/mg protein/30 min

Q: And the “[^3H] Deltorphin II uptake (%) of control” value [2]?
A: 1%

Q: How did the “Deltorphin II uptake” value ([1]; [^3H]deltorphin II 25 nM) turn out when `NCCCC[C@H](N)C(N)=O` [L-Lys-amide] was run?
A: 2.92 ± 0.09 pmol/30 min/mg protein

Q: What does the source list for “Tyr-Gly-Gly-Phe-Leu-Arg-Arg-IIe-Arg-Pro-Lys-Leu-Lys (YGGFLRRIRPKLK) [Dynorphin A (1-13)]”?
A: [^3H] Deltorphin II uptake [3]: 0.04 ± 0.001 pmol/mg protein/30 min; [^3H] Deltorphin II uptake (%) of control [3]: 4%; IC50 [1]: 0.15 ± 0.01 µM; fold higher affinity than the shorter dynorphins (six to nine amino acids) ([2]; RPE cells): ~10 fold; [^3H] Deltorphin II uptake [2]: 0.07 ± 0.01 pmol/mg protein/30 min; [^3H] Deltorphin II uptake (%) of control [2]: 1%

Q: With Gly-Gly-Phe as the molecule, how does the “effect” value ([1]; [^3H]deltorphin II 25 nM) read?
A: ability to stimulate the uptake

Q: With `C[N+](C)(C)C[C@H](O)CC(=O)[O-]` [L-Carnitine] as the molecule, how does the “Deltorphin II uptake” value ([1]; [^3H]deltorphin II 25 nM) read?
A: 2.34 ± 0.12 pmol/30 min/mg protein

Q: For `CC(C)C[C@H](N)C(=O)O` [L-leucine], which “effect” value ([1]; [^3H]deltorphin II 25 nM) is on record?
A: significant inhibition

Q: With `CC(C)[C@H](N)C(=O)O` [L-valine] as the molecule, how does the “effect” value ([1]; [^3H]deltorphin II 25 nM) read?
A: significant inhibition

Q: “YGGFLR [Dynorphin A (1-6), Tyr-Gly-Gly-Phe-Leu-Arg]” was tested. Which “[^3H] Deltorphin II uptake” value [3] did it give?
A: 0.06 ± 0.001 pmol/mg protein/30 min

Q: What about the “[^3H] Deltorphin II uptake (%) of control” value [3] of the same molecule?
A: 5%

Q: And the IC50 [1]?
A: 3.5 ± 0.4 µM

Q: What about the “[^3H] Deltorphin II uptake” value [2] of the same molecule?
A: 0.12 ± 0.00 pmol/mg protein/30 min

Q: And the “[^3H] Deltorphin II uptake (%) of control” value [2]?
A: 2%

Q: How did the “Deltorphin II uptake” value ([1]; [^3H]deltorphin II 25 nM) turn out when `CC(=O)N[C@@H](CCCCN)C(=O)O` [α-N-acetyl-L-Lys] was run?
A: 2.82 ± 0.08 pmol/30 min/mg protein

Q: With `N=C(N)NCCC[C@H](N)C(=O)O` [L-Arg, L-arginine] as the molecule, how does the “Deltorphin II uptake” value ([1]; [^3H]deltorphin II 25 nM) read?
A: 1.46 ± 0.12 pmol/30 min/mg protein

Q: And the “effect” value ([1]; [^3H]deltorphin II 25 nM)?
A: significant inhibition

Q: Which “effect” value ([1]; [^3H]deltorphin II 25 nM) does the source give for Try-Gly-Gly here?
A: ability to stimulate the uptake

Q: Which “Deltorphin II uptake” value ([1]; [^3H]deltorphin II 25 nM) does the source give for `NCCC[C@H](N)C(=O)O` [L-Ornitine] here?
A: 1.87 ± 0.08 pmol/30 min/mg protein
